According to ChEMBL document CHEMBL5390265, “Design, Synthesis, and Pharmacological Evaluation of Multisubstituted Pyrido[4,3-d]pyrimidine Analogues Bearing Deuterated Methylene Linkers as Potent KRASG12D Inhibitors” (J Med Chem, 2023):

Legend:
Assay type in all cases: functional, cell-based
[1] = system: ASPC1; experiment: Antiproliferative activity against human ASPC1 cells harboring […] assessed as inhibition of cell growth incubated for 5 days by crystal violet staining analysis
[2] = system: A549; experiment: Antiproliferative activity against human A549 cells harboring […] assessed as inhibition of cell growth incubated for 5 days by crystal violet staining analysis
[3] = system: NCI-H1299; experiment: Antiproliferative activity against human NCI-H1299 cells harboring KRAS wild type assessed as inhibition of cell growth incubated for 5 days by crystal violet staining analysis; conditions: NCI-H1299, 120 h
[4] = system: AGS; experiment: Antiproliferative activity against human AGS cells harboring […] assessed as inhibition of cell growth incubated for 5 days by crystal violet staining analysis

| Compound | IC50 ([1]; Homo sapiens, ASPC1, 120 h) [nM] | IC50 ([2]; Homo sapiens, A549, 120 h) [nM] | IC50 [3] [nM] | IC50 ([4]; Homo sapiens, AGS, 120 h) [nM] | IC50 ([1]; aspc1) [nM] | IC50 ([2]; a549) [nM] | IC50 ([4]; ags) [nM] |
| --- | --- | --- | --- | --- | --- | --- | --- |
| C#Cc1c(F)ccc2cc(O)cc(-c3ncc4c(N5C[C@H]6CC[C@@H](C5)N6)nc(N5C[C@@H]6C[C@H](C5)c5cccc(=O)n5C6)nc4c3F)c12 | > 50 | > 5000 | > 5000 | > 50 | – | – | – |
| C#Cc1c(F)ccc2cc(O)cc(-c3ncc4c(N5C[C@H]6CC[C@@H](C5)N6)nc(OC[C@H]5CC6CCN5C[C@@H]6C=C)nc4c3F)c12 | > 50 | > 5000 | > 5000 | > 50 | – | – | – |
| C#Cc1c(F)ccc2cc(O)cc(-c3ncc4c(N5C[C@H]6CC[C@@H](C5)N6)nc(OCC56CCCN5CC(=C)C6)nc4c3F)c12 (some centres not stated) | 4.6 | 2220 | > 5000 | 1.4 | – | – | – |
| [2H]C1([2H])CCC2(C([2H])([2H])Oc3nc(N4C[C@H]5CC[C@@H](C4)N5)c4cnc(-c5cc(O)cc6ccc(F)c(C#C)c56)c(F)c4n3)CC(=C)CN12 (some centres not stated) | 2 | 1680 | > 5000 | 0.8 | – | – | – |
| [2H]C([2H])(Oc1nc(N2CCC(N(C)C)C2)c2cnc(-c3cc(O)cc4ccc(F)c(C#C)c34)c(F)c2n1)C12CCCN1CC(=C(F)F)C2 (configuration not stated) | > 50 | > 5000 | > 5000 | > 50 | – | – | – |
| C#Cc1c(F)ccc2cc(O)cc(-c3ncc4c(N5C[C@H]6CC[C@@H](C5)N6)nc(OC[C@]56CCCN5[C@@H](COC(=O)NCC57C[C@H]8C[C@@H](C5)C[C@@H](C7)C8)CC6)nc4c3F)c12 (mixture of isomers) | 42.2 | > 5000 | > 5000 | 12.6 | – | – | – |
| [2H]C([2H])(Oc1nc(N2C[C@H]3CC[C@@H](C2)N3)c2cnc(-c3c(Cl)c(C)cc4[nH]ncc34)c(F)c2n1)C12CCCN1CC(=C(F)F)C2 (some centres not stated) | > 50 | > 5000 | > 5000 | > 50 | – | – | – |
| [2H]C([2H])(Oc1nc(N2C[C@H]3CC[C@@H](C2)N3)c2cnc(-c3cccc4cc(F)c(F)c(C#C)c34)c(F)c2n1)C12CCCN1CC(=C(F)F)C2 (some centres not stated) | > 50 | > 5000 | > 5000 | > 50 | – | – | – |
| [2H]C([2H])(Oc1nc(N2C[C@H]3CC[C@@H](C2)N3)c2cnc(-c3cc(N)cc4cccc(C#C)c34)c(F)c2n1)C12CCCN1CC(=C(F)F)C2 (some centres not stated) | 2 | 2180 | 2500 | 1.2 | – | – | – |
| [2H]C([2H])(Oc1nc(N2C[C@H]3CC[C@@H](C2)N3)c2cnc(-c3cc(O)cc4ccc(F)c(C#C)c34)c(F)c2n1)C12CC(=C)CN1C[C@H](F)C2 (some centres not stated) | 1.6 | 2160 | > 5000 | 0.8 | – | – | – |
| C#Cc1c(F)ccc2cc(O)cc(-c3ncc4c(N5C[C@H]6CC[C@@H](C5)N6)nc(OC[C@]56CCCN5[C@@H](COC(=O)N5CCS(=O)(=O)CC5)CC6)nc4c3F)c12 (racemic) | > 50 | > 5000 | > 5000 | > 50 | – | – | – |
| C#Cc1c(F)ccc2cc(O)cc(-c3ncc4c(N5C[C@H]6CC[C@@H](C5)N6)nc(OC(C)C56CCCN5CC(=C)C6)nc4c3F)c12 (some centres not stated) | > 50 | 4500 | > 5000 | > 50 | – | – | – |
| [2H]C([2H])(Oc1nc(NCC23CCCN2CCC3)c2cnc(-c3cc(O)cc4ccc(F)c(C#C)c34)c(F)c2n1)C12CCCN1CC(=C(F)F)C2 (configuration not stated) | > 50 | > 5000 | > 5000 | > 50 | – | – | – |
| C#Cc1c(F)ccc2cc(O)cc(-c3ncc4c(N5C[C@H]6CC[C@@H](C5)N6)nc(OC[C@]56CCCN5[C@@H](Cn5cc(CCC#N)nn5)CC6)nc4c3F)c12 (racemic) | > 50 | > 5000 | > 5000 | > 50 | – | – | – |
| C#Cc1c(F)ccc2cc(O)cc(-c3ncc4c(N5C[C@H]6CC[C@@H](C5)N6)nc(OC[C@]56CCCN5[C@@H](Cn5cc(COCCOC)nn5)CC6)nc4c3F)c12 (racemic) | > 50 | > 5000 | > 5000 | > 50 | – | – | – |
| [2H]C([2H])(Oc1nc(N2C[C@H]3CC[C@@H](C2)N3)c2cnc(-c3cc(O)cc4ccc(F)c(C#C)c34)c(F)c2n1)C12CC(=C)CN1CC(=C)C2 | 1.3 | 559 | 2010 | 0.4 | – | – | – |
| [2H]C([2H])(Oc1nc(N2C[C@H]3CC[C@@H](C2)N3)c2cnc(-c3cccc4c(F)cc(F)c(C#C)c34)c(F)c2n1)C12CCCN1CC(=C(F)F)C2 (some centres not stated) | > 50 | > 5000 | > 5000 | > 50 | – | – | – |
| [2H]C(Oc1nc(N2C[C@H]3CC[C@@H](C2)N3)c2cnc(-c3cc(O)cc4ccc(F)c(C#C)c34)c(F)c2n1)C12CCCN1CC(=C)C2 (some centres not stated) | 2.1 | 731 | > 5000 | 1.3 | – | – | – |
| [2H]C([2H])(Oc1nc(N[C@H]2CCCC[C@@H]2N(C)C)c2cnc(-c3cc(O)cc4ccc(F)c(C#C)c34)c(F)c2n1)C12CCCN1CC(=C(F)F)C2 (some centres not stated) | > 50 | > 5000 | > 5000 | > 50 | – | – | – |
| C#CCN(C)C(=O)OC[C@H]1CC[C@@]2(COc3nc(N4C[C@H]5CC[C@@H](C4)N5)c4cnc(-c5cc(O)cc6ccc(F)c(C#C)c56)c(F)c4n3)CCCN12 | – | – | – | – | 207 | > 5000 | 59.3 |
| [2H]C([2H])(Oc1nc(N2C[C@H]3CC[C@@H](C2)N3C)c2cnc(-c3cc(O)cc4ccc(F)c(C#C)c34)c(F)c2n1)C12CCCN1CC(=C(F)F)C2 (some centres not stated) | > 50 | > 5000 | > 5000 | > 50 | – | – | – |
| [2H]C([2H])(Oc1nc(N2C[C@H]3CC[C@@H](C2)N3)c2cnc(-c3cc(O)cc4ccc(F)c(C#C)c34)c(F)c2n1)C12CC(=C)CN1CC(=C(F)F)C2 (some centres not stated) | 1.1 | 960 | 1930 | 0.6 | – | – | – |
| [2H]C([2H])(Oc1nc(N2C[C@H]3CC[C@@H](C2)N3)c2cnc(-c3cc(O)cc4ccc(F)c(C#C)c34)c(F)c2n1)C12CCCN1CC(=C)C2 (some centres not stated) | 3.8 | 948 | > 5000 | 1.1 | – | – | – |
| C#CCN(C)C(=O)OC[C@@H]1CC[C@]2(COc3nc(N4C[C@H]5CC[C@@H](C4)N5)c4cnc(-c5cc(O)cc6ccc(F)c(C#C)c56)c(F)c4n3)CCCN12 | 23.9 | 1020 | > 5000 | 15.4 | – | – | – |
| C#Cc1c(F)ccc2cc(O)cc(-c3ncc4c(N5C[C@H]6CC[C@@H](C5)N6)nc(OCCn5cc(COCC67CCCN6CC(=C)C7)nn5)nc4c3F)c12 (some centres not stated) | > 50 | > 5000 | > 5000 | > 50 | – | – | – |
| [2H]C([2H])(Oc1nc(N2C[C@H]3CC[C@@H](C2)N3)c2cnc(-c3cc(O)cc4ccc(F)c(C#C)c34)c(F)c2n1)C12CC(=C)CN1CC1(CC1)C2 (some centres not stated) | 3.9 | 944 | 3020 | 1.1 | – | – | – |
| C#Cc1c(F)ccc2cc(O)cc(-c3ncc4c(N5C[C@H]6CC[C@@H](C5)N6)nc(NCCCn5cc(COCC67CCCN6CC(=C)C7)nn5)nc4c3F)c12 (some centres not stated) | > 50 | > 5000 | > 5000 | > 50 | – | – | – |
